Literature values, collected in patent publication US11337939B2 (PULMONEM INC., priority 2020, dated 2022).

Key:
[1] = system: human bronchial epithelial cells; settings: stimulated with lipopolysaccharide
airway inflammation = settings: ferret

absorbed from the gastrointestinal tract (from the gastrointestinal tract): 70%-80%
time to peak serum concentration (serum): 2 to 6 h
Compound: Nc1ccc(S(=O)(=O)c2ccc(N)cc2)cc1 [Dapsone, 4,4′-diaminodiphenyl sulfone]
IL-8 secretion [1]: inhibits IL-8 secretion
airway inflammation (airway inflammation): resolves airway inflammation
